Test results reported in patent publication US20190388387A1, “COMPOSITION FOR INHIBITING MYOFIBROSIS” (SUNTORY HOLDINGS LIMITED, priority 2017, published 2019).

Legend:
[1] = system: rat skeletal muscle-derived muscle satellite cells; assay: Morphological changes of muscle satellite cells to myofibroblasts under TGF β fibrosis induction (Masson's Trichrome staining); type: cell-based; details: TGF β 1 ng/mL
Experimental: Gastrocnemius, soleus, plantaris muscle, tibialis anterior, extensor digitorum longus, and quadriceps were extracted from male Fischer 344 rats of 9 to 15 weeks old under anesthesia, and minced in phosphate buffered saline (PBS) (Life Technologies Corporation) on ice. The minced muscle tissue was enzymatically degraded by Protease (Sigma-Aldrich) at 37° C., and then centrifuged repeatedly, whereby the muscle satellite cells were isolated. The muscle satellite cells were suspended in Dulbecco's Modified Eagle Medium (DMEM) containing 10% fetal equine serum, and cultured for 24 hours. After culturing, centrifugation was performed again, and the deposited muscle satellite cells were seeded onto an 8-well slide glass (Thermo Fisher Scientific) to a density of 5×10^4 to 7×10^4 cells/mL in F-10 medium (Gibco) containing 20% bovine serum. After seeding, the muscle satellite cells were cultured for 72 hours or 120 hours. The muscle satellite cells for tissue staining were cultured for 72 hours, and muscle satellite cells for genetic analysis were cultured for 120 hours to provide enough cells. In the case of the muscle satellite cells to be cultured for 120 hours, the F-10 medium containing 20% bovine serum was replaced 72 hours after seeding. After the culturing for 72 hours or 120 hours, the muscle satellite cells were cultured in a differentiation-inducing medium for 24 hours. The differentiation-inducing medium was a medium in which a TGF β (TGF-β) signal inhibitor, quercetin, or solvent was added in an amount shown in Table 1 to Dulbecco's Modified Eagle Medium (DMEM) containing 2% fetal equine serum. TGF β (Sigma-Aldrich) was used for fibrosis induction. The compound was added to the differentiation-inducing medium using HCl as solvent to a final concentration of 1 ng/mL. TGF β was added when a TGF β signal inhibitor or quercetin was added. The TGF β signal inhibitor was SB525334 (6-[2-tert-butyl-5-(6-methyl-pyridin-2-yl)-1H-imidazol-4-yl]-quinoxaline available from Wako Pure Chemical Industries, Ltd.). […]

[2] = system: Colla1 gene; assay: Fibrosis marker gene expression analysis (quantitative PCR), Colla1 gene; type: cell-based, rat; details: TGF β 1 ng/mL, 24 hours, FIG. 2(b)
Experimental: (§1) Gastrocnemius, soleus, plantaris muscle, tibialis anterior, extensor digitorum longus, and quadriceps were extracted from male Fischer 344 rats of 9 to 15 weeks old under anesthesia, and minced in phosphate buffered saline (PBS) (Life Technologies Corporation) on ice. The minced muscle tissue was enzymatically degraded by Protease (Sigma-Aldrich) at 37° C., and then centrifuged repeatedly, whereby the muscle satellite cells were isolated. The muscle satellite cells were suspended in Dulbecco's Modified Eagle Medium (DMEM) containing 10% fetal equine serum, and cultured for 24 hours. After culturing, centrifugation was performed again, and the deposited muscle satellite cells were seeded onto an 8-well slide glass (Thermo Fisher Scientific) to a density of 5×10^4 to 7×10^4 cells/mL in F-10 medium (Gibco) containing 20% bovine serum. After seeding, the muscle satellite cells were cultured for 72 hours or 120 hours. […] The cDNAs obtained by reverse transcription reaction was subjected to quantitative PCR in Step One Plus Real Time PCR System using TaqMan Fast Universal PCR Mastermix (Life Technologies Corporation). The expression levels of Colla1 gene and Acta2 gene as a myofibroblast marker were measured. For quantitative PCR, the cells were first maintained at 95° C. for 20 seconds, and then subjected to 40 cycles of reaction at 95° C. for 1 second and 60° C. for 20 seconds. […]

[3] = system: Acta2 gene; assay: Fibrosis marker gene expression analysis (quantitative PCR), Acta2 gene; type: cell-based, rat; details: TGF β 1 ng/mL, 24 hours, Dunnett's test vs. TGF β(+), FIG. 2(a)
Experimental: as §1

Cc1cccc(-c2[nH]c(C(C)(C)C)nc2-c2ccc3nccnc3c2)n1 [SB525334, 6-[2-tert-butyl-5-(6-methyl-pyridin-2-yl)-1H-imidazol-4-yl]-quinoxaline, reference compound]
TGF β-induced morphological changes of muscle satellite cells to myofibroblasts ([1]; SB525334 1 μM, 24 hours in differentiation-inducing medium, FIG. 1(c)): clearly inhibited | expression of Colla1 gene ([2]; SB525334 1 μM, Dunnett's test vs. TGF β(+)): significantly inhibited | expression of Acta2 gene ([3]; SB525334 1 μM): significantly inhibited

O=c1c(O)c(-c2ccc(O)c(O)c2)oc2cc(O)cc(O)c12 [quercetin]
morphological changes of muscle satellite cells to myofibroblast-like cells ([1]; quercetin 50 μM, 24 hours, vs. TGF β-added group, FIG. 1(d)): more inhibited | morphological changes of muscle satellite cells to myofibroblasts ([1]; quercetin 100 μM, 24 hours, vs. 50-μM quercetin-added group, FIG. 1(e)): stronger effect of inhibiting morphological changes | expression of Colla1 gene ([2]; quercetin 50 μM and 100 μM): inhibited in a concentration-dependent manner | expression of Acta2 gene ([3]; quercetin 100 μM): significantly inhibited
